Values joined by “and” are separate entries in the source; they are usually repeats but may differ in a detail not shown here. Identical values can stand only once.
Experiments:
Format in all cases: physicochemical
[1] = LNP size and polydispersity index (PDI) by dynamic light scattering (DLS)
[2] = LNP Zeta potential measured using a Zetasizer (Malvern)
[3] = Encapsulation efficiency (EE %) by fluorescence based Ribogreen assay
[4] = Table 1, LNP lipid:DSPC:Cholesterol:DMG-PEG2k 50:10:38.5:1.5 mol %, hEPO mRNA, N:P 6
[5] = Table 3, LNP 50:10:38.5:1.5 mol %, hEPO mRNA, N:P 6
[6] = Table 3, LNP lipid:DSPC:Cholesterol:DMG-PEG2k 50:10:38.5:1.5 mol %, hEPO mRNA, N:P 6
[7] = Table 5, LNP 50:10:38.5:1.5 mol %, hEPO mRNA, N:P 6
[8] = Table 5, LNP 60:0:38.5:1.5 mol %, hEPO mRNA, N:P 6
[9] = Table 2, LNP 20:10:68.5:1.5 mol %, EGFP mRNA, N:P 2.4
[10] = Table 2, LNP 20:40:38.5:1.5 mol %, EGFP mRNA, N:P 2.4
[11] = Table 2, LNP 30:10:58.5:1.5 mol %, EGFP mRNA, N:P 3.6
[12] = Table 2, LNP 30:30:38.5:1.5 mol %, EGFP mRNA, N:P 3.6
[13] = Table 2, LNP 40:10:48.5:1.5 mol %, EGFP mRNA, N:P 4.8
[14] = Table 2, LNP 40:20:38.5:1.5 mol %, EGFP mRNA, N:P 4.8
[15] = Table 2, LNP 50:10:38.5:1.5 mol %, EGFP mRNA, N:P 6
[16] = Table 4, LNP 40:10:48.5:1.5 mol %, hEPO mRNA, N:P 6
[17] = Table 4, LNP 40:10:48.5:1.5 mol %, hEPO mRNA, N:P 9
[18] = Table 4, LNP 40:10:48.5:1.5 mol %, hEPO mRNA, N:P 12
[19] = Table 4, LNP 50:10:38.5:1.5 mol %, hEPO mRNA, N:P 6
[20] = Table 4, LNP 50:10:38.5:1.5 mol %, hEPO mRNA, N:P 9
[21] = Table 4, LNP 50:10:38.5:1.5 mol %, hEPO mRNA, N:P 12
[22] = Table 4, LNP 60:0:38.5:1.5 mol %, hEPO mRNA, N:P 6
[23] = Table 4, LNP 60:0:38.5:1.5 mol %, hEPO mRNA, N:P 9
[24] = Table 4, LNP 60:0:38.5:1.5 mol %, hEPO mRNA, N:P 12

CCCCCCCCC(CCCCCC)C(=O)OCCN(CCOC(=O)C(CCCCCC)CCCCCCCC)C(=O)CN (stereo not shown) [Compound 105]
PDI [1, 4]: 0.217 | Size [1, 4]: 72.6 nm | PDI [1, 5]: 0.256 | Size [1, 6]: 162.2 nm | PDI [1, 7]: 0.104 | PDI [1, 8]: 0.198 | Size [1, 8]: 146.3 nm | Size ([1]; Table 5, LNP Lipid:DSPC:Cholesterol:DMG-PEG2k 50:10:38.5:1.5 mol %, hEPO mRNA, N:P 6): 166.9 nm | Zeta potential [2, 4]: −4.852 mV | Zeta potential [2, 7]: −5.091 mV | Zeta potential [2, 8]: −8.315 mV | Encapsulation Efficiency % [3, 4]: 91.3% | Encapsulation Efficiency % [3, 5]: 99.9% | Encapsulation Efficiency % [3, 7]: 99.6% | Encapsulation Efficiency % [3, 8]: 99.3%

CCCCCCCC/C=C\CCCCCCCC(=O)OCCN(CCOC(=O)CCCCCCC/C=C\CCCCCCCC)C(=O)C(C)N (stereo not shown) [Compound 107]
Size [1, 4]: 100.4 nm | PDI [1, 5]: 0.016 | Size [1, 6]: 60.6 nm | Zeta potential [2, 4]: 5.484 mV | Encapsulation Efficiency % [3, 4]: 93% | Encapsulation Efficiency % [3, 5]: 99.9%

CCCCCCCCCCCC(=O)OCCN(CCOC(=O)CCCCCCCCCCC)C(=O)C(C)N (stereo not shown) [Compound 109]
PDI [1, 4]: 0.557 | Size [1, 4]: 90.7 nm | Zeta potential [2, 4]: 8.911 mV | Encapsulation Efficiency % [3, 4]: 97.6%

CCCCCCCCCC(=O)OCCN(CCOC(=O)CCCCCCCCC)C(=O)C(C)N (stereo not shown) [Compound 110]
PDI [1, 4]: 0.069 | Size [1, 4]: 57.7 nm | Zeta potential [2, 4]: −4.943 mV | Encapsulation Efficiency % [3, 4]: 98%

CCCCCCCCC(CCCCCC)C(=O)OCCN(CCOC(=O)C(CCCCCC)CCCCCCCC)C(=O)C(C)N (stereo not shown) [Compound 111]
PDI [1, 4]: 0.223 | Size [1, 4]: 93.4 nm | PDI [1, 9]: 0.129 | PDI [1, 10]: 0.095 | PDI [1, 11]: 0.082 | PDI [1, 12]: 0.117 | PDI [1, 13]: 0.038 | PDI [1, 14]: 0.136 | PDI [1, 15]: 0.235 and 0.253 | Size ([1]; Table 2, LNP lipid:DSPC:Cholesterol:DMG-PEG2k 20:10:68.5:1.5 mol %, EGFP mRNA, N:P 2.4): 57.5 nm | Size ([1]; Table 2, LNP lipid:DSPC:Cholesterol:DMG-PEG2k 20:40:38.5:1.5 mol %, EGFP mRNA, N:P 2.4): 69.2 nm | Size ([1]; Table 2, LNP lipid:DSPC:Cholesterol:DMG-PEG2k 30:10:58.5:1.5 mol %, EGFP mRNA, N:P 3.6): 46.5 nm | Size ([1]; Table 2, LNP lipid:DSPC:Cholesterol:DMG-PEG2k 30:30:38.5:1.5 mol %, EGFP mRNA, N:P 3.6): 57 nm | Size ([1]; Table 2, LNP lipid:DSPC:Cholesterol:DMG-PEG2k 40:10:48.5:1.5 mol %, EGFP mRNA, N:P 4.8): 44.1 nm | Size ([1]; Table 2, LNP lipid:DSPC:Cholesterol:DMG-PEG2k 40:20:38.5:1.5 mol %, EGFP mRNA, N:P 4.8): 48.2 nm | Size ([1]; Table 2, LNP lipid:DSPC:Cholesterol:DMG-PEG2k 50:10:38.5:1.5 mol %, EGFP mRNA, N:P 6): 110.9 nm and 106 nm | PDI [1, 5]: 0.27 | Size [1, 6]: 100.9 nm | Zeta potential [2, 4]: −3.357 mV | Zeta potential [2, 9]: −6.2 mV | Zeta potential [2, 10]: −8.876 mV | Zeta potential [2, 11]: −4.4 mV | Zeta potential [2, 12]: −9.169 mV | Zeta potential [2, 13]: −6.9 mV | Zeta potential [2, 14]: −8.503 mV | Encapsulation Efficiency % [3, 4]: 95.9% | Encapsulation Efficiency % [3, 9]: 99.7% | Encapsulation Efficiency % [3, 10]: 99.3% | Encapsulation Efficiency % [3, 11]: 99.8% | Encapsulation Efficiency % [3, 12]: 99.2% | Encapsulation Efficiency % [3, 13]: 99.7% | Encapsulation Efficiency % [3, 14]: 99.6% | Encapsulation Efficiency % [3, 15]: 99.4% and 99.8% | Encapsulation Efficiency % [3, 5]: 98.1%

CCCCCCCC/C=C\CCCCCCCC(=O)OCCN(CCOC(=O)CCCCCCC/C=C\CCCCCCCC)C(=O)C(N)Cc1ccccc1 (stereo not shown) [Compound 113]
PDI [1, 4]: 0.126 | Size [1, 4]: 79.1 nm | PDI [1, 5]: 0.068 | Size [1, 6]: 61.4 nm | Zeta potential [2, 4]: −2.878 mV | Encapsulation Efficiency % [3, 4]: 95.2% | Encapsulation Efficiency % [3, 5]: 99.7%

CCCCCCCCCCCC(=O)OCCN(CCOC(=O)CCCCCCCCCCC)C(=O)C(N)Cc1ccccc1 (stereo not shown) [Compound 115]
PDI [1, 4]: 0.291 | Size [1, 4]: 70.8 nm | Zeta potential [2, 4]: −2.403 mV | Encapsulation Efficiency % [3, 4]: 89.5%

CCCCCCCCC(CCCCCC)C(=O)OCCN(CCOC(=O)C(CCCCCC)CCCCCCCC)C(=O)C(N)Cc1ccccc1 (stereo not shown) [Compound 117]
PDI [1, 4]: 0.07 | Size [1, 4]: 61.6 nm | PDI [1, 5]: 0.071 | Size [1, 6]: 70.6 nm | PDI [1, 16]: 0.204 | Size [1, 16]: 56.4 nm | PDI [1, 17]: 0.354 | Size [1, 17]: 67.8 nm | PDI [1, 18]: 0.119 | Size [1, 18]: 75.7 nm | PDI [1, 19]: 0.134 | PDI [1, 20]: 0.365 | Size [1, 20]: 65.3 nm | PDI [1, 21]: 0.515 | Size [1, 21]: 67.8 nm | PDI [1, 22]: 0.089 | Size [1, 22]: 125 nm | PDI [1, 23]: 0.018 | Size [1, 23]: 123 nm | PDI [1, 24]: 0.263 | Size [1, 24]: 55 nm | Size ([1]; Table 4, LNP Lipid:DSPC:Cholesterol:DMG-PEG2k 50:10:38.5:1.5 mol %, hEPO mRNA, N:P 6): 62.2 nm | Zeta potential [2, 4]: −5.265 mV | Zeta potential [2, 16]: −0.6716 mV | Zeta potential [2, 17]: −1.95 mV | Zeta potential [2, 18]: −3.302 mV | Zeta potential [2, 19]: −4.369 mV | Zeta potential [2, 20]: −2.051 mV | Zeta potential [2, 21]: −4.408 mV | Zeta potential [2, 22]: −5.393 mV | Zeta potential [2, 23]: −5.043 mV | Zeta potential [2, 24]: −5.125 mV | Encapsulation Efficiency % [3, 4]: 96.7% | Encapsulation Efficiency % [3, 5]: 95.1% | Encapsulation Efficiency % [3, 16]: 87.7% | Encapsulation Efficiency % [3, 17]: 98% | Encapsulation Efficiency % [3, 18]: 98.3% | Encapsulation Efficiency % [3, 19]: 96.3% | Encapsulation Efficiency % [3, 20]: 98.6% | Encapsulation Efficiency % [3, 21]: 98.2% | Encapsulation Efficiency % [3, 22]: 90.2% | Encapsulation Efficiency % [3, 23]: 92.3% | Encapsulation Efficiency % [3, 24]: 94.8%

CCCCCCCCCCCC(=O)OCCN(CCOC(=O)CCCCCCCCCCC)C(=O)C(N)CCCCN (stereo not shown) [Compound 121]
Size [1, 4]: 105.4 nm | Zeta potential [2, 4]: 8.346 mV | Encapsulation Efficiency % [3, 4]: 93.1%

CCCCCCCCCC(=O)OCCN(CCOC(=O)CCCCCCCCC)C(=O)C(N)CCCCN (stereo not shown) [Compound 122]
PDI [1, 4]: 0.259 | Size [1, 4]: 71.8 nm | Zeta potential [2, 4]: 6.541 mV | Encapsulation Efficiency % [3, 4]: 94.2%

CCCCCCCCC(CCCCCC)C(=O)OCCN(CCOC(=O)C(CCCCCC)CCCCCCCC)C(=O)C(N)CCCCN (stereo not shown) [Compound 123]
PDI [1, 4]: 0.338 | Size [1, 4]: 83.3 nm | Zeta potential [2, 4]: −3.45 mV | Encapsulation Efficiency % [3, 4]: 97%

CCCCCCCCCCCC(=O)OCCN(CCOC(=O)CCCCCCCCCCC)C(=O)C(N)Cc1c[nH]cn1 (stereo not shown) [Compound 127]
PDI [1, 4]: 0.387 | Size [1, 4]: 85.9 nm | Zeta potential [2, 4]: 6.011 mV | Encapsulation Efficiency % [3, 4]: 89.5%

CCCCCCCCCC(=O)OCCN(CCOC(=O)CCCCCCCCC)C(=O)C(N)Cc1c[nH]cn1 (stereo not shown) [Compound 128]
PDI [1, 4]: 0.058 | Size [1, 4]: 77.8 nm | Zeta potential [2, 4]: 6.43 mV | Encapsulation Efficiency % [3, 4]: 95.2%

From patent US20250268826A1, “IONIZABLE LIPIDOID COMPOSITIONS AND THERAPEUTIC USES THEREOF” (Flagship Pioneering Innovations VII, LLC, priority 2023, published 2025)
